# Key:
# [1] = system: subjects with Acute Migraines; experiment: Pooled adverse event and liver function test data, Studies 301, 302 and 303; assay type: in vivo, human; conditions: for bilirubin elevations > 2 × ULN: across Studies 301, 302 and 303
# [2] = system: subjects with Acute Migraines; experiment: Study 302 (BHV3000-302, NCT03237845): Phase 3 double-blind placebo-controlled trial, rimegepant 75 mg tablet, acute treatment of migraine; assay type: in vivo, human; conditions: for Percent (%) difference of Patients Pain Free: Rimegepant versus Placebo: no rescue meds, Kaplan-Meier estimates; for Freedom from MBS at 2 hours / Pain Freedom (pain-free) at 2 hours: N = 537
# Description: Clinical Trial—BHV3000-302: Phase 3: Double-Blind, Randomized, Placebo-Controlled, Safety and Efficacy Trial of BHV-3000 (Rimegepant) for the Acute Treatment of Migraine (ClinicalTrials.gov Identifier: NCT03237845) A phase 3 clinical study was conducted with 1503 participants, as follows. The purpose of this study is to compare the efficacy of BHV-3000 (rimegepant) versus placebo in subjects with Acute Migraines Study Design • Study Type: Interventional (Clinical Trial) • Actual Enrollment: 1503 participants • Allocation: Randomized • Intervention Model: Parallel Assignment • Intervention Model Description: Double-blind to Sponsor, Investigator and Subject • Masking: Triple (Participant, Care Provider, Investigator) • Masking Description: Double-blind to Sponsor, Investigator and Subject • Primary Purpose: Treatment • Official Title: BHV3000-302: Phase 3: Double-Blind, Randomized, Placebo-Controlled, Safety and Efficacy Trial of BHV-3000 (Rimegepant) for the Acute Treatment of Migraine • Actual Study Start Date: Jul. 26, 2017 • Primary Completion Date: Jan. 25, 2018 • Study Completion Date: Jan. 31, 2018 Arms and Interventions Outcome Measures Primary Outcome Measures: • 1. Pain Freedom of rimegepant (75 mg tablet) compared with placebo in the acute treatment of migraine will be measured using the number of evaluable subjects that report no pain at 2 hours post-dose. [Time Frame: Two hours post dose] • Pain will be measured on a 4 point Likert scale (0=none, 1=mild, 2=moderate, 3=severe) • 2. Freedom from the most bothersome symptom (MBS) of rimegepant (75 mg tablet) compared with placebo will be measured using the number of evaluable subjects that report the absence of their MBS at 2 hours post-dose. [Time Frame: Two hours post dose] • The MBS (nausea, phonophobia or photophobia) will measured using a binary scale (0=absent, 1=present). Secondary Outcome Measures: • 1. […] [Time Frame: 2 hours-24 hours post-dose] • Sustained Pain Freedom as measured by a 4 point numeric rating scale (None, Mild, Moderate, Severe) • 2. Rimegepant (75 mg tablet) compared to placebo by tabulating the number of subjects that report the absence of photophobia at 2 hours post-dose in the subset of subjects that reported the presence of photophobia at headache baseline. [Time Frame: 2 hours post-dose] • Freedom from Photophobia • 3. Rimegepant (75 mg tablet) compared to placebo by tabulating the number of subjects that report the absence of phonophobia at 2 hours post-dose in the subset of subjects that reported the presence of phonophobia at headache baseline. [Time Frame: 2 hours post-dose] • Freedom from Phonophobia • 4. To measure rimegepant (75 mg tablet) compared to placebo on Pain Relief, at 2 hours post-dose, that report a pain level of moderate or severe at baseline and then report a pain level of none or mild. [Time Frame: 2 hours post-dose] • Pain Relief as measured by a 4 point numeric rating scale (None, Mild, Moderate, Severe) • 5. Freedom from Nausea will by tabulating the number of subjects that report the absence of nausea at 2 hours post-dose in the subset of subjects that reported the presence of nausea at headache baseline. [Time Frame: 2 hours post-dose] • Freedom from Nausea • 6. To measure rimegepant (75 mg tablet) compared to placebo on the probability of requiring rescue medication will be assessed using the number of subjects that take rescue medication within […] administration of study medication (BHV3000 or placebo). [Time Frame: up to 24 hours post-dose] • Requiring Rescue Medication • 7. […] [Time Frame: 2 hours-48 hours post-dose] • Sustained Pain Freedom as measured by a 4 point numeric rating scale (None, Mild, Moderate, Severe) • 8. […] [Time Frame: 2 hours-24 hours post-dose] • Sustained Pain Relief as measured by a 4 point numeric rating scale (None, Mild, Moderate, Severe) • 9. […] [Time Frame: 2 hours-48 hours post-dose] • Sustained Pain Relief as measured by a 4 point numeric rating scale (None, Mild, Moderate, Severe) • 10. […]
# [3] = pooled Studies 301, 302, 303, n = 1,771
# [4] = pooled Studies 301, 302, 303, n = 1,771, AST elevation, not drug-related
# [5] = pooled Studies 301, 302, 303, within 48 hours post-dose, n = 1,771
# [6] = Study 302, single 75 mg tablet, listed as rimegepant
smiles,measurement,setting,value
"N[C@@H]1c2cccnc2[C@H](OC(=O)N2CCC(n3c(=O)[nH]c4ncccc43)CC2)CC[C@H]1c1cccc(F)c1F [Rimegepant, [(5S,6S,9R)-5-amino-6-(2,3-difluorophenyl)-6,7,8,9-tetrahydro-5H-cyclohepta[b]pyridin-9-yl] 4-(2-oxo-3H-imidazo[4,5-b]pyridin-1-yl)piperidine-1-carboxylate]",bilirubin elevations > 2 × ULN,[1],"*AST/ALT Categories are not mutually exclusive; No bilirubin elevations > 2 × ULN across Studies 301, 302 and 303"
same,bilirubin elevations > 2 × ULN,[1]; listed as rimegepant,no patients
same,drug-related Serious Adverse Events (SAEs),"[1]; pooled Studies 301, 302, 303",**No drug-related Serious Adverse Events (SAEs). 2 of the subjects with SAE in rimegepant group and 1 in placebo group had not been dosed before onset of SAE.
same,"ALT or AST >3 × ULN, number of subjects",[1]; [3],2
same,"ALT or AST >3 × ULN, percent of subjects",[1]; [3],(0.1%)
same,"ALT or AST >20 × ULN, number of subjects",[1]; [3],0
same,"ALT or AST >ULN, number of subjects",[1]; [3],48
same,"ALT or AST >ULN, percent of subjects",[1]; [3],(2.7%)
same,"SAEs, number of patients",[1]; [3],3
same,"SAEs, percent of patients",[1]; [3],0.2%
same,"ALT or AST >5 × ULN, number of subjects",[1]; [4],1
same,"ALT or AST >5 × ULN, percent of subjects",[1]; [4],(0.06%)^2
same,"AE Nausea, number of patients",[1]; [5],26
same,"AE Nausea, percent of patients",[1]; [5],1.5%
same,"AE UTI, number of patients",[1]; [5],21
same,"AE UTI, percent of patients",[1]; [5],1.2%
same,"≥1 On-Study AE, number of patients",[1]; [5],252
same,"≥1 On-Study AE, percent of patients",[1]; [5],14.2%
same,SAEs related to the study drug,[2]; Study 302,No SAEs
same,bilirubin elevations greater than 2 times ULN,[2]; Study 302,no bilirubin elevations
same,transaminase level greater than 3 times ULN,[2]; Study 302,No subject
same,AE urinary tract infection,"[2]; Study 302, 8/543",1.5%
same,AE nausea,"[2]; Study 302, 10/543",1.8%
same,Serum ALT or AST levels greater than ULN,"[2]; Study 302, 13/543",2.4%
same,Percent (%) difference of Patients Pain Free: Rimegepant versus Placebo,"[2]; Study 302, 2 hours post single dose 75 mg",7%
same,Percent (%) difference of Patients Pain Free: Rimegepant versus Placebo,"[2]; Study 302, 3 hours post single dose 75 mg",13%
same,Percent (%) difference of Patients Pain Free: Rimegepant versus Placebo,"[2]; Study 302, 4 hours post single dose 75 mg",19%
same,Percent (%) difference of Patients Pain Free: Rimegepant versus Placebo,"[2]; Study 302, 6 hours post single dose 75 mg",22%
same,Percent (%) difference of Patients Pain Free: Rimegepant versus Placebo,"[2]; Study 302, 8 hours post single dose 75 mg",19%
same,functional disability: patients achieving normal function at 2 hours versus placebo,"[2]; Study 302, P<0.0001",greater proportion
same,"Serious AEs (SAEs), subjects","[2]; Study 302, back pain",1 subject
same,"Free from MBS at 2 hours, subjects [n/N]","[2]; Study 302, single 75 mg tablet",[202/537]
same,Nausea-free at 2 hours,"[2]; Study 302, single 75 mg tablet",48.1%
same,"Nausea-free at 2 hours, subjects [n/N]","[2]; Study 302, single 75 mg tablet",[171/355]
same,Pain relief at 2 hours,"[2]; Study 302, single 75 mg tablet",58.1%
same,"Pain relief at 2 hours, subjects [n/N]","[2]; Study 302, single 75 mg tablet",[312/537]
same,"Pain-free at 2 hours, subjects [n/N]","[2]; Study 302, single 75 mg tablet",[105/537]
same,Phonophobia-free at 2 hours,"[2]; Study 302, single 75 mg tablet",36.7%
same,"Phonophobia-free at 2 hours, subjects [n/N]","[2]; Study 302, single 75 mg tablet",[133/362]
same,Photophobia-free at 2 hours,"[2]; Study 302, single 75 mg tablet",37.4%
same,"Photophobia-free at 2 hours, subjects [n/N]","[2]; Study 302, single 75 mg tablet",[183/489]
same,"Sustained pain relief, 2-24 hours","[2]; Study 302, single 75 mg tablet",42.6%
same,"Sustained pain relief, 2-24 hours, subjects [n/N]","[2]; Study 302, single 75 mg tablet",[229/537]
same,Freedom from MBS at 2 hours,"[2]; Study 302, single 75 mg tablet",37.6%
same,Pain Freedom (pain-free) at 2 hours,"[2]; Study 302, single 75 mg tablet",19.6%
same,Freedom from MBS at 2 hours,[2]; [6],37.6%
same,Pain Freedom (pain-free) at 2 hours,[2]; [6],19.6%
same,Pain relief at 2 hours,[2]; [6],58.1%
same,sustained pain relief from 2 through 48 hours postdose versus placebo,"[2]; Study 302, single dose, no rescue medication, P<0.0001",superiority versus placebo
same,sustained pain freedom from 2 through 48 hours postdose versus placebo,"[2]; Study 302, single dose, no rescue medication, P=0.0181",superiority versus placebo

# — patent publication US11083724B2, “Rimegepant for CGRP related disorders” (Biohaven Pharmaceutical Holding Company Ltd., priority 2018, dated 2021)
